Reference: US20250163056A1, “NONMUSCLE MYOSIN II INHIBITORS” (The University of Florida Research Foundation, Inc., priority 2018, published 2025)
In brackets after ≈: the same amount, converted by molar mass.

Key:
Male Sprague-Dawley rats = experiment: Cardiac safety assay 2: in vivo echocardiography with IV drug infusion; set-up: species or system rat
Excerpt: The first (results shown in Table 2) assesses the effects of our compounds on the contractility of cardiomyocytes. As the cardiac Ki increases, the contractility effects dramatically decrease. However, unlike in the adult heart, the hiPS cardiomyocytes used in this assay express NMII, which likely accounts for the residual contractility effects seen at the highest dose tested. For that reason, we moved to in vivo echocardiograms, which assess contractility in live animals (FIG. 7). […] Accordingly, the compounds of the invention and compounds used for practice of methods of the invention can produce less cardiac toxicity than does blebbistatin.
Male Sprague-Dawley rats are acclimated for approximately 1 week prior to use. Rats are lightly anesthetized using isoflurane and an intravenous catheter is placed for dosing purposes. Baseline 2-D echocardiograms are collected (standard SAX B-mode and M-mode at the level of the papillary muscle). Each rat receives a total of 3 IV treatments. Vehicle (10% DMSO, 10% Tween 80 and 80% water) is first administered, followed 10 minutes later by two subsequent infusions, separated by 10 minutes. Infusions of the positive control, Blebbistatin, are delivered at 0.5 mg/kg IV. […] Measurements including fractional shortening, ejection fraction, heart rate and cardiac output are calculated.

[1] = tested on: polydrug-associated memories; experiment: Polydrug-associated memory CPP (METH/NIC, METH/MOR); assay type: in vivo, mice; settings: Test 1 and Test 2, drugs on alternating days
Procedure: FIG. 6(A,B,C,D,E): Nonmuscle myosin II inhibition disrupts polydrug-associated memories when the drugs are administered on alternating days (A) Schematic of the experimental design. […] METH/NIC: Veh n=10; METH/NIC: Blebb n=10; METH/MOR: Veh n=19; METH/MOR: Blebb n=19; * p<0.05, ** p<0.01, *** p<0.001. Error bars represent±s.e.m.
The vast majority of individuals with substance use disorder are polydrug users. For example, most METH users also smoke. We recently made an unexpected discovery with direct relevance to polydrug use^76. When animals are treated with both METH and a drug that is impervious to Blebb on its own (nicotine or morphine), either concurrently or on alternating days, the nicotine and morphine memories become susceptible to immediate disruption by Blebb, akin to the effect on METH alone memories (FIG. 6). Thus, memories for previously impervious drugs of abuse become susceptible to NMII inhibition when METH associations are also formed. Importantly, this occurs when associative training is performed with METH and the other drug of abuse being administered simultaneously or separately, on different days. We are currently expanding our analysis to other commonly abused drugs, including other opioids, such as heroin, alcohol, cocaine and synthetic cathinones.

various myosin IIs = settings: reported in the literature; read-out: biochemical IC50 values in various myosin IIs; cited from earlier work
fear memory = experiment: Auditory fear memory after systemic NMII inhibition; assay type: in vivo; settings: IP administered
Excerpt: (§1) FIG. 3(A,B,C,D): Systemic NMII inhibition selectively targets the storage of (A) a METH-associated memory, (B) having no effect on an auditory fear memory. Similarly, spine density associated with a METH-associated memory (C), but not a fear memory (D), is reduced.
(§2) The potential for systemic NMII inhibition to selectively target METH-associated memories in the way that intra-AMY administration does was also investigated. […] IP administered Blebbistatin also disrupts reconsolidation of memories for cocaine, nicotine and mephedrone, a result with additional potential therapeutic relevance in treating relapse^75-76. In addition, the BLC spine density increase that accompanies a METH-associated memory is reversed by Blebbistatin (FIG. 3C), without altering the spine density increase associated with a fear memory (FIG. 3D)^65, 74.

[2] = Photostability, percentage remaining undegraded under illumination or in the dark
[3] = Solubility (quoted in the Table 2 note); assay type: physicochemical
[4] = tested on: hiPS cardiomyocytes (Cor.4U CMs); experiment: Cardiac safety assay 1: beating parameters of cardiomyocytes (xCELLigence RTCA Cardio); assay type: cell-based, human; settings: hiPS-derived cardiomyocytes
Procedure: The spontaneous contractions of cardiomyocytes (CMs) is measured label-free in real time using the ACEA xCELLigence RTCA Cardio instrument. All measurements are performed at 37° C. in a cell culture incubator, allowing for spontaneous beating of CMs at physiological conditions. Cor.4U CMs are seeded at 3×10^4 cells/well in 180 μl/well maintenance medium. Prior to seeding, a background impedance measurement (plate plus medium) is performed. The contraction of CMs involves cyclic modulation of cell morphology and adhesion inducing a delta change in impedance. From the cyclic changes in impedance a beating frequency, amplitude and effects on beating pattern can be calculated. Time point “0” (baseline) is recorded 10× for 20 seconds at 1 minute intervals. Thereafter, compounds and control (0.1% DMSO) are added to the wells and effects are measured 30 minutes later. Vehicle control is 0.1% DMSO and positive control is 100 nM isoproterenol. Compounds are tested at 0.1, 0.3, 1.0 and 3.0 uM. Data is collected at 5, 10, 15, 20 and 30 minutes, and 1, 4, 6, 12 and 24 hours post-incubation.

[5] = Brain and plasma distribution after IP dosing; assay type: in vivo, mice; settings: 10 mg/kg
Procedure: FIG. 4: Brain and plasma distribution of blebbistatin after IP dosing at 10 mg/kg in mice.
as §2

METH seeking = experiment: Context-induced reinstatement of METH seeking (animal model of relapse); assay type: in vivo; settings: single intra-BLC administration
METH-associated memory = experiment: METH-associated memory, conditioned place preference (CPP) assay; assay type: in vivo, mice and rats; settings: single intra-BLC or IP administration (IP 10 mg/kg)
Excerpt: In 2013, we published the finding that depolymerization of actin in the AMY disrupts the storage of METH-associated memories in a selective, retrieval-independent manner^65. Because of the limited clinical potential of actin depolymerizing agents, we turned to NMII, a molecular motor we previously found to be a key regulator of memory, synaptic plasticity (long-term potentiation [LTP]) and actin polymerization in dendritic spines^59 63. Through a series of experiments in a recently published studies, we detailed NMII's potential as a therapeutic target for SUD relapse^52,74-76.
as §2

BLC spine density = BLC spine density associated with memory; settings: in vivo
Excerpt: as §1, §2

With `Cc1ccc2c(c1)C(=O)[C@]1(O)CCN(c3ccccc3)C1=N2` [Blebbistatin, reference compound] the “contractility effects in in vivo echocardiograms” value (Male Sprague-Dawley rats) was “substantial contractility effects”, the “METH/MOR CPP” value [1] was “did not demonstrate a significant METH/MOR CPP during either test” and the “METH/NIC CPP” value [1] was “did not demonstrate a significant METH/NIC CPP during either test”. The IC50 (various myosin IIs) was 1.8 to 9 µM, the “effect on a fear memory” value (fear memory) was “no similarly immediate effect on a fear memory” and the “Photostability 4 hours” value ([2]; percentage remaining undegraded after 4 hours illumination) was 82.9%. For the same molecule, the “Photostability 24 hours” value ([2]; percentage remaining undegraded after 24 hours illumination) was 9.3%, the “Photostability Dark (24 h)” value ([2]; percentage remaining undegraded in the dark, 24 h) was greater than 99% and the solubility [3] was 9.3 µM (≈ 2.72 µg/mL). For the same molecule, the “Qualitative impact on contractility (e.g. Full = Complete inhibition of contraction)” value ([4]; 0.1 uM) was “No”, the “Qualitative impact on contractility (e.g. Full = Complete inhibition of contraction)” value ([4]; 0.3 uM) was “Partial” and the “Qualitative impact on contractility (e.g. Full = Complete inhibition of contraction)” value ([4]; 1.0 uM) was 1.0u M: Full 3.0 uM: Full. For the same molecule, the “Change in amplitude at 1 uM @ 15 min” value ([4]; 1 uM, 15 min) was −57.9 ± 12.8%, the “Qualitative impact on contractility (e.g. Full = Complete inhibition of contraction)” value ([4]; 3.0 uM) was 1.0u M: Full 3.0 uM: Full and the brain levels [5] was 90 µM. For the same molecule, the “context-induced reinstatement of METH seeking” value (METH seeking) was “prevents context-induced reinstatement of METH seeking”, the METH-associated memory (METH-associated memory; listed as Blebb) was “disrupt a METH-associated memory” and the METH-associated memory (METH-associated memory; listed as blebbistatin) was “disrupted”. For the same molecule, the “BLC spine density increase accompanying a METH-associated memory” value (BLC spine density) was “reversed”.
